In patent publication US11103605B2, “PET-imaging immunomodulators” (BRISTOL-MYERS SQUIBB COMPANY, priority 2016, dated 2021):

Columns and labels:
endogenous PD-L1 = assay: PET imaging in non-human primate, baseline and blocking study; conditions: for % Change of tracer SUV, baseline vs blocked: 2 mg/kg PD-L1 binding macrocyclic peptide
Protocol: Cynomolgus male monkeys with a previously installed vascular access port (VAP) were anesthetized with 0.02 mg/kg atropine, 5 mg/kg Telazol and 0.01 mg/kg buprenorphine I.M. (all drawn into a single syringe). An i.v. catheter is then placed in the cephalic vessel for fluid administration during the imaging procedure to maintain hydration. Animals were intubated with an endotracheal tube—usually 3.0 mm and transferred to the imaging bed of a microPET® F220TM PET instrument (Siemens Preclinical Solutions, Knoxville, Tenn.). Anesthesia was maintained with isoflurane and oxygen and I.V. fluids (LRS) were administered at a rate of 6 ml/kg/hr during the imaging procedure. As the axial field of view of the microPET® F220™ instrument is only 7.6 cm, images over 5 distinct bed positions were acquired to create a composite image of the animals from just above the heart through approximately the pelvis.
For each field of view, a 10 minute transmission image was first acquired using a ^57Co point source for the purpose of attenuation correction of the final PET images. Once transmission images were acquired for all bed positions, approximately 1.7 mCi (approximately 0.12 μg/kg) of the [^18F]labelled macrocyclic PD-L1 peptide radiotracer was administered via the installed VAP. 5 minute duration emission scans were then sequentially acquired for each bed position, beginning at position 1 centered approximately at the heart and moving toward the pelvis of the animal. Once images were acquired at each position (1 through 5), the imaging bed was moved back to bed position 1 and the process was repeated. Using this procedure, a total of 5 distinct images were acquired for each bed position over the duration of the imaging study.
Individual images were reconstructed using a filtered back projection (FBP) algorithm with attenuation correction using the collected transmission images and corrected for radioisotope decay. Final composite images were then produced by aligning images from all 5 bed positions obtained from a single pass (i.e. a single composite image was produced from each set of sequential images from bed positions 1 through 5) covering the duration of the imaging study. […] To determine the nature of the specific binding in the cynomolgus monkey spleen a blocking study was conducted in the following manner.
The cynomolgus monkey (4.4 kg, male) received a single IV injection of [^18F]labelled macrocyclic PD-L1 peptide radiotracer (˜1.7 mCi, mass: 0.21 μg/kg) at baseline. On the following day (post-dose), the same NHP received a single SC dose of 2 mg/kg anti-PD-L1 binding macrocyclic peptide at 2 hours before radiotracer injection (˜1.7 mCi, mass: 0.12 μg/kg).

PD-L1 = biological target: T1, PD-L1 (Homo sapiens, UniProt Q9NZQ7); assay: In vitro autoradiography on human lung tumor and xenograft tissue sections; format: binding; conditions: 0.25 nM radiotracer, unlabelled peptide 0.1 nM, 1 nM, 10 nM
T1 construct: Human lung tumor tissues were embedded in OCT and chilled in 2-methylbutane; from tissue; host or cells: human non-small cell lung cancer biopsy sections; L2987 (hPD-L1+) and HT-29 (hPD-L1-) human xenograft sections grown in mice
T1 sequence (Q9NZQ7 19-290): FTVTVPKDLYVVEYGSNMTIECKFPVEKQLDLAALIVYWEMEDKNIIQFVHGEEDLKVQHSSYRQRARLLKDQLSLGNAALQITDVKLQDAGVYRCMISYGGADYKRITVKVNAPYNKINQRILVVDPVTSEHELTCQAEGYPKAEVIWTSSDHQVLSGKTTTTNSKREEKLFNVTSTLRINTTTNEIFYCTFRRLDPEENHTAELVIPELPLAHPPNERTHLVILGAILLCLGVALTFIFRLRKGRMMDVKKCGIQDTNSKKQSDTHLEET
Protocol: Human lung tumor tissues were embedded in OCT and chilled in 2-methylbutane for 2-5 minutes until frozen. Samples were stored in −80° C. degree freezer until use. Human xenograft tissues were also included in the assay. […] Once resulting xenograft tumors reached appropriate size (approx. 200-300 mm^3), mice were anesthetized with 2% isoflurane and sacrificed via cervical dislocation. Fresh tumor tissues were excised, immersed into OCT and chilled in 2-methylbutane for 2-5 minutes until frozen. The tissues were then wrapped in foil/ZIPLOC® bag and stored at −80° C. until use. For all tissues (human lung tumor and xenografts) sections of 5 μm thickness (collected as 2 sections/slide) were cut using a cryostat, thaw-mounted on glass microscope slides, and allowed to air dry for approximately 30 minutes. Blocking studies with cold (unlabelled) peptide at 0.1 nM, 1 nM, and 10 nM respectively. The individual slides, 1 slide per concentration, were transferred to glass slide incubation chambers for incubation. […] Autoradiography signals from tissue-associated radioactivity were quantified from these ROIs. The apparent displacement of the [^18F]labelled macrocyclic PD-L1 peptide radiotracer when compared to the total binding sections was determined for 3 different concentrations (0.1 nM, 1 nM, and 10 nM) of unlabeled peptide in both human lung tumor sections as well as human xenograft sections. […]

## CCCC[C@H]1C(=O)N(C)[C@@H](CCCC)C(=O)N[C@@H](CC(C)C)C(=O)N[C@H](C(=O)NCC(=O)N[C@@H](Cc2cn(CCOCCOCCOCCOc3cccnc3[18F])nn2)C(=O)O)CSCC(=O)N[C@@H](Cc2ccc(O)cc2)C(=O)N(C)[C@@H](C)C(=O)N[C@@H](CC(N)=O)C(=O)N2CCC[C@H]2C(=O)N[C@@H](CN)C(=O)N[C@@H](CC(C)C)C(=O)N2C[C@H](O)C[C@H]2C(=O)N[C@@H](Cc2c[nH]c3ccccc23)C(=O)N[C@@H](CCN)C(=O)N[C@@H](Cc2cn(CC(=O)O)c3ccccc23)C(=O)N1C [[^18F]labelled macrocyclic PD-L1 peptide]
Endogenous PD-L1; 2 mg/kg of a specific PD-L1 binding macrocyclic peptide
  tracer uptake blocked in the spleen: 93%
Endogenous PD-L1; Duodenum
  % Change of tracer SUV, baseline vs blocked: −0.9%
Endogenous PD-L1; Gallbladder
  % Change of tracer SUV, baseline vs blocked: −59.4%
Endogenous PD-L1; Kidney Cortex
  % Change of tracer SUV, baseline vs blocked: 28.8%
Endogenous PD-L1; Kidney Pelvis
  % Change of tracer SUV, baseline vs blocked: 171.7%
Endogenous PD-L1; Liver
  % Change of tracer SUV, baseline vs blocked: −65.5%
Endogenous PD-L1; Lung
  % Change of tracer SUV, baseline vs blocked: −57.3%
Endogenous PD-L1; Muscle
  % Change of tracer SUV, baseline vs blocked: −34.7%
Endogenous PD-L1; PET images
  notable radiotracer accumulation (organs): kidneys, spleen, and bladder
Endogenous PD-L1; Spleen
  % Change of tracer SUV, baseline vs blocked: −92.8%
Endogenous PD-L1; Thymus
  % Change of tracer SUV, baseline vs blocked: −53.3%
Endogenous PD-L1; visual inspection of PET images
  background accumulation of radiotracer in background tissues such as muscle: very low
PD-L1
  displacement of radiotracer by unlabelled peptide: dose dependent displacement
